Converted amounts (≈) assume the structure as drawn. Read-outs that look alike come from different tables or passages of the source.
Tests used:
[1] = format: physicochemical; settings: 3 weeks
Protocol: The stability of amlodipine nicotinate and amlodipine besylate was tested at 45° C. and 75° C. for 3 weeks.

[2] = Solubility in water at room temperature (saturated aqueous solution); format: physicochemical; settings: room temperature of about 25° C.
Protocol: At the ambient temperature (room temperature of about 25° C.), a saturated aqueous solution of amlodipine nicotinate contains about 6.0 mg of the chemical per mL of water. In comparison, a saturated aqueous solution of amlodipine besylate contains about 2.0 mg of the chemical per mL of water.

[3] = aqueous solution
[4] = listed as amlodipine nicotinate

## CCOC(=O)C1=C(COCCN)NC(C)=C(C(=O)OC)C1c1ccccc1Cl (stereo not shown) [Amlodipine Besylate, amlodipine besylate, reference compound]
[1]
  Stability Test (% of Sample Purity) (3-week) 45° C.: 99.6%
  Stability Test (% of Sample Purity) (3-week) 75° C.: 97.8%
[2]
  Solubility in Water at Room Temperature: about 2.0 mg/ml
[3]
  pH Value: 6.09

## CCOC(=O)C1=C(COCCN)NC(C)=C(C(=O)OC)C1c1ccccc1Cl (stereo not shown) [Amlodipine Nicotinate, amlodipine nicotinate]
[1]
  Stability Test (% of Sample Purity) (3-week) 45° C.: 99.7%
  Stability Test (% of Sample Purity) (3-week) 75° C.: 99.2%
[2]
  Solubility in Water at Room Temperature: 6000 µg/mL (≈ 14.7 mM)
[2]; [4]
  Solubility in Water at Room Temperature: about 6.0 mg/ml
[3]
  pH Value: 5.34
[3]; [4]
  pH Value: 5.34

Source: patent US6699892B2, “Pharmaceutically acceptable salt of amlodipine and method of preparing the same” (Yung Shin Pharmaceutical Industrial Co., Ltd., priority 2002, dated 2004)
